Data taken from US20170066797A1, “WITHAFERIN A ANALOGS AND USES THEREOF” (Whitehead Institute for Biomedical Research, priority 2008, published 2017).

Columns and labels:
[1] = system: PC-3M (metastatic prostate cancer); assay: Proliferation/survival assay, PC-3M; format: cell-based; conditions: same time dependence as in MCF-7
Method: (§1) A standard tetrazolium dye [3-(4,5-di-methylthiazol-2-yl)-2,5-diphenyltetrazoliumbromide; MTT]-based colorimetric assay was used to measure the proliferation/survival of cells in triplicate wells using a 96-well plate-based format. […] Cells were exposed continuously to test compounds for 24 or 72 h at which times related viable cell number per well was determined as previously described (Wijeratne, et al., J Nat. Prod. (2003) 66: 1567-1573, incorporated herein by reference).

[2] = Conversion of 2,3-dihydrowithaferin A-3β-O-sulfate to withaferin A in cell culture media (HPLC); format: physicochemical; conditions: DMEM + 10% fetal bovine serum, 37° C., 4, 16, 24 h, FIG. 2
Method: FIGS. 2A and 2B. Conversion of 2,3-dihydrowithaferin A-3β-O-sulfate (solid circles) to withaferin A (solid squares) in cell culture medium. (A) Incubation of 2,3-dihydrowithaferin A-3β-O-sulfate in DMEM supplemented with 10% fetal bovine serum. (B) Incubation in cysteine/methionine-free DMEM supplemented with 10% fetal bovine serum. The concentration of 2,3-dihydrowithaferin A-3β-O-sulfate (solid circles) and its conversion to withaferin A (solid squares) was measured over time by HPLC using an external standard curve method.
Stock solutions of 2,3-dihydrowithaferin A-3β-O-sulfate in DMSO (50 μL) were diluted into cell culture medium (950 μL) to achieve the indicated starting concentration, mixed thoroughly and the solution incubated in a CO2 incubator at 37° C. Aliquots (100 μL) were withdrawn at 4, 16, and 24 h and subjected to HPLC analysis for 2,3-dihydrowithaferin A-3β-O-sulfate (RRT=18.5 min) and withaferin A (RRT=23.5 min) on a Kromasil C18 RP column (250×4.6 mm, […]) with gradient elution using 40-100% aqueous MeOH and using an ELSD detector. An external standard curve method was used to calculate the concentration of each compound in the sampled aliquots (Khajuria, et al., J Sep. Sci. (2004) 27: 541-546, incorporated herein by reference).

[3] = system: MCF-7 breast cancer cells; assay: MTT proliferation/survival (cytotoxicity) assay, MCF-7; format: cell-based
From the text: FIG. 1. Concentration- and time-dependent cell proliferation/survival inhibition by 2,3-dihydrowithaferin A-3β-O-sulfate (WA-SO4) and withaferin A (WA). MCF-7 breast cancer cells were exposed to the indicated concentrations of compounds and relative viable cell number determined by dye reduction assay after the time intervals noted. Data are representative of three independent experiments.
as §1

[4] = system: minimal heat shock response element derived from the promoter region of the Hsp70B gene; assay: Heat shock reporter (EGFP) induction; format: cell-based; conditions: overnight exposure, FIG. 8
Method: FIG. 8. Heat shock reporter induction measured by micro plate fluorimeter. Reporter cells stably transduced with a plasmid encoding enhanced green fluorescent protein (EGFP) under the control of a minimal heat shock response element were exposed to 2,3-dihydrowithaferin A-3β-O-sulfate (WA-SO4) or withaferin A (WA) at the indicated concentrations overnight. Relative fluorescence units (RFU) per well were determined as a measure of reporter activation. Each point represents the mean of nine determinations from three independent experiments.
Immortalized mouse embryo fibroblasts derived from homozygous Hsf1 knockout mice or their wild type littermates were exposed overnight to equitoxic concentrations of 1 or the known heat shock-inducing Hsp90 inhibitor gendanamycin. Whole cell lysates were prepared in non-ionic detergent buffer and immunoblotted for relative levels of Hsp72, a highly inducible member of the Hsp70 family of molecular chaperones, using monoclonal antibody C92F3A-5 (StressMarq Biosciences, Victoria, BC). Reactivity was detected using peroxidase-conjugated secondary antibody and chemiluminescent detection. To evaluate the relative ability of compounds to induce a heat shock response at the transcriptional level, a reporter cell line was used as previously described (Turbyville, et al., J. Nat. Prod. (2006) 69: 178-184, incorporated herein by reference). […]

WI-38 fibroblasts = assay: Detection of F-actin aggregation (phalloidin staining); format: cell-based, Human; conditions: 4 μM, 4 or 24 h, FIG. 3
Method: FIGS. 3A-3D. Induction of F-actin aggregation. Following incubation with test compounds for the indicated intervals, WI-38 fibroblasts were fixed and stained with fluorescently-labeled phalloidin (green signal) to visualize the actin cytoskeleton. Cells were counterstained with DAPI (blue signal) to identify their nuclei. All images were acquired using the same magnification and exposure conditions. Data are representative of two independent experiments. (A) DMSO, 24 h incubation. (B) Withaferin A, 4 h. (C) 2,3-Dihydrowithaferin A-3β-O-sulfate, 4 h. (D) 2,3-Dihydrowithaferin A-3β-O-sulfate, 24 h.
Cells were seeded in 8-well chamber slides at a density of 2×10^4 cells per well and allowed to adhere for 48 h. Compounds 1 and 2 were freshly prepared as 5 mM stock solutions in DMSO and applied to cells at a final concentration of 4 μM in RPMI culture medium supplemented with 10% fetal bovine serum, Glutamax™, and penicillin/streptomycin. Control wells were treated with an equal volume of DMSO, not exceeding 0.2% in culture media. Cells were incubated for 4 or 24 h in the continuous presence of the indicated compounds, then washed twice with PBS, fixed with 4% paraformaldehyde/PBS (pH 7.6), and permabilized with 0.1% triton-X 100/PBS. […]

[5] = system: NCI-H460 (non small cell lung); assay: Proliferation/survival assay, NCI-H460; format: cell-based; conditions: same time dependence as in MCF-7
Method: as §1

[6] = system: Human umbilical vein endothelial cells (HUVEC); assay: Endothelial cell network (tube) formation on Matrigel; format: cell-based; conditions: 16 h, FIG. 6
Method: FIG. 6. […] Human umbilical vein endothelial cells (HUVEC) were seeded into Matrigel-coated wells and allowed to adhere for 1 h. Adherent cells were exposed to the indicated concentrations of withaferin A, epi-withaferin A (α-WA) or an equal volume of solvent vehicle (DMSO) for 16 h. Cells were washed 1× in PBS and fixed to visualize tube formation by light microscopy.

[7] = system: Ewing's sarcoma cells (CHP-100); conditions: 72 hours, MTT, FIG. 5
From the text: Relative viable cell number was quantified by MTT assay. Results are presented as a percentage compared to wells exposed to DMSO alone. […] Points: mean of triplicate determinations; Error bars: s.d.

| Structure (SMILES) | proliferation/survival inhibition compared with withaferin A, PC-3M [1] | conversion to withaferin A in cell culture media [2] | potency compared with withaferin A, MCF-7 ([3]; after ca. 72 hours) | inhibition of the proliferation/survival of MCF-7 breast cancer cells ([3]; dye reduction (MTT) assay, 24 or 72 h, FIG. 1) | heat shock reporter induction [4] | induction of F-actin aggregation (WI-38 fibroblasts) | proliferation/survival inhibition compared with withaferin A, NCI-H460 [5] | inhibition of endothelial cell network formation [6] | inhibition of tumor cell growth in vitro, CHP-100 [7] |
| --- | --- | --- | --- | --- | --- | --- | --- | --- | --- |
| CC1=C(CO)C(=O)OC(C(C)C2CC[C@H]3[C@@H]4C[C@H]5O[C@]56[C@@H](O)[C@@H](OS(=O)(=O)O)CC(=O)[C@]6(C)[C@H]4CC[C@]23C)C1 (stereo partly drawn) [2,3-dihydrowithaferin A-3β-O-sulfate] | same results | conversion of dihydrowithaferin A-3β-O-sulfate to withaferin A in cell culture media | equipotent with withaferin A | concentration- and time-dependent inhibition | induces a robust heat shock response after overnight treatment of cells, albeit at higher concentrations than that of withaferin A | induced F-actin aggregation, but dihydrowithaferin A-3β-O-sulfate required a longer period of time | same results |  |  |
| CC1=C(CO)C(=O)OC([C@@H](C)C2CCC3C4C[C@H]5O[C@]56[C@H](O)C=CC(=O)[C@]6(C)C4CC[C@@]32C)C1 (stereo partly drawn) [epi-withaferin A] |  |  |  |  |  |  |  | Inhibition of endothelial cell network formation | Concentration-dependent inhibition of tumor cell growth in vitro |
